# Where “and” joins values, the source holds several entries; their conditions need not be identical. Equal values may be shown once. Where a name gives a salt, the structure may show the parent alone. Read-outs that look alike come from different tables or passages of the source.
# What was measured:
# [1] = cited from earlier work
# [2] = in vivo, cited from earlier work
# [3] = tested on: patients undergoing TKA or THA; test: Example 2: open label study of Tramadol IV in Total knee Arthroplasty or Total Hip Arthroplasty; details: for PAIN Intensity Difference, Mean score (SD): 100 mg IV; for Time to first demand of rescue medication after the first dose of Tramadol, Mean: hydrochloride
# mice and rats = details: cited from earlier work
# rats and dogs = details: repeat-dose; cited from earlier work
# clinical = details: human, in vivo
# Text: The secondary objectives of the study are to assess the safety and tolerability of the study medication.
# The study was an open-label, single-period, randomized, parallel treatment design. The subjects underwent screening within 4 weeks of dosing. A total of 32 subjects were selected for participation. All subjects entered the clinical research unit on Day −1 prior to dosing. A blood sample for pharmacogenomic analysis was obtained at Day 1. This sample was to be used to determine the CYP2D6 phenotype if significant variability among subjects is observed in the pharmacokinetic values. Subjects received study drug every 6 hours beginning on the morning of Day 1 and ending on the morning of Day 3. The first dose on Day 1 and the last dose on Day 3 were administered after a minimum 10 hour fast.
# No food was administered until 4 hours after dosing on Day 3. Standardized meals were provided. Subjects remained confined to the clinical research unit until after completion of the 24 hour post-dose blood sampling and safety assessments (Day 4). […] Study drug tolerability was evaluated by Investigator assessment and evaluation of adverse event frequency and severity, including irritation at the injection site. Subjects who were taking SSRIs, tricyclic antidepressants, antipsychotic agents and MAO inhibitors were excluded from the study.
# The treatments are defined in Table 3 below. Each subject received only one of the designated treatments.
# The subjects were randomized to receive one of the 4 treatment regimens as outlined above. Subjects were administered Treatments A or C by intravenous administration or Ultram® (Treatment B or D) orally beginning in the morning of Day 1 at approximately 6:00 AM to 8:00 AM. All subjects fasted for at least 10 hours prior to the first dose of study drug. […] Water was allowed ad libitum; however, water was restricted from 1 hour prior to dosing to 1 hour after dosing on Day 3. Following the last dose in the morning of Day 3, no food was allowed until after the 4 hour blood sample had been obtained.
# FIG. 1 is a graphical representation of the plasma concentration curve for Treatments A-D after the administration of dose #9.
# [4] = in vitro and in vivo; cited from earlier work
# [5] = tested on: patients undergoing abdominal surgery; details: both groups; cited from earlier work
# in vivo = details: beagle, dog; for AUC(0-t) / Cmax: 26 mg/kg/day
smiles,measurement,setting,value
"COc1cccc([C@]2(O)CCCC[C@H]2CN(C)C)c1 (racemic) [Tramadol, (±)cis-2-[(dimethylamino)methyl]-1-(3-methoxyphenyl) cyclohexanol hydrochloride]",estimated absorption of the oral dose,[1]; 100 mg PO,86-88%
same,AUC0-24 h,[1]; 100 mg i.v.,3709 ± 977 ng·h/mL
same,Vd,[1]; 100 mg i.v.,203 L
same,t1/2,[1]; 100 mg i.v.,5.2 h
same,CL/F (total clearance),"[1]; 100 mg i.v., hydrochloride",467 ± 124 mL/min
same,CL/F (total clearance),"[1]; 100 mg i.v., listed as tramadol, hydrochloride",710 ± 174 mL/min
same,time to peak serum concentration (tmax),[1]; 100 mg oral dosing,approximately 2 hours
same,AUC0-24 h,[1]; 100 mg p.o.,2488 ± 774 ng·h/mL
same,Cmax,[1]; 100 mg p.o.,280 ± 49 ng/mL
same,Vd,[1]; 100 mg p.o.,306 L
same,t1/2,[1]; 100 mg p.o.,5.1 h
same,CL/F (total clearance),"[1]; 100 mg p.o., hydrochloride",710 ± 174 mL/min
same,CL/F (total clearance),"[1]; 100 mg p.o., listed as tramadol, hydrochloride",467 ± 124 mL/min
same,absolute bioavailability of the oral dose,"[1]; 100 mg, comparison of AUC values, hydrochloride",68±13% and 68%
same,distribution half-life in the initial phase,[1]; after IV administration,0.31 ± 0.17 h
same,half-life of slower distribution phase,[1]; after IV administration,1.7 ± 0.4 h
same,first pass metabolism,[1]; estimated,~20%
same,half-life,[2]; iv,5.6 h
same,absolute bioavailability,[2]; po,90-100%
same,increase of elimination half-life,[2],approximately 2 fold
same,major adverse events,"[3]; 100 mg IV every 6 hours, 48 hours","nausea and vomiting, followed by pruritus"
same,tolerability,"[3]; 100 mg QID, patients with both high and low BMI",well tolerated
same,"Morphine usage, Mean","[3]; 1st dose Tramadol at wound closure, First 24 hours",10.57 mg
same,"Morphine usage, Mean","[3]; 1st dose Tramadol at wound closure, In 48 hours",12.98 mg
same,"Morphine usage, Mean","[3]; 1st dose Tramadol at wound closure, Loading dose",4.05 mg
same,"Morphine usage, Mean","[3]; 1st dose Tramadol at wound closure, Second 24 hours",3.79 mg
same,"Morphine usage, Mean","[3]; 1st dose Tramadol on demand, First 24 hours",11.03 mg
same,"Morphine usage, Mean","[3]; 1st dose Tramadol on demand, In 48 hours",12.92 mg
same,"Morphine usage, Mean","[3]; 1st dose Tramadol on demand, Loading dose",3.69 mg
same,"Morphine usage, Mean","[3]; 1st dose Tramadol on demand, Second 24 hours",4 mg
same,"PAIN Intensity Difference, Mean score (SD)","[3]; 1st dose at wound closure, 0.5 hours post first dose",0 (0.09)
same,"PAIN Intensity Difference, Mean score (SD)","[3]; 1st dose at wound closure, 1 hour post first dose",−0.3 (1.6)
same,"PAIN Intensity Difference, Mean score (SD)","[3]; 1st dose at wound closure, 2 hours post first dose",−1.2 (1.8)
same,"PAIN Intensity Difference, Mean score (SD)","[3]; 1st dose at wound closure, 3 hours post first dose",−2.2 (1.9)
same,"PAIN Intensity Difference, Mean score (SD)","[3]; 1st dose at wound closure, 4 hours post first dose",−2.6 (2.0)
same,"PAIN Intensity Difference, Mean score (SD)","[3]; 1st dose at wound closure, 6 hours post first dose",−3.2 (2.1)
same,"PAIN Intensity Difference, Mean score (SD)","[3]; 1st dose at wound closure, 9 hours post first dose",−2.7 (2.2)
same,"PAIN Intensity Difference, Mean score (SD)","[3]; 1st dose at wound closure, 12 hours post first dose",−2.2 (2.0)
same,"PAIN Intensity Difference, Mean score (SD)","[3]; 1st dose at wound closure, 18 hours post first dose",−2.2 (2.1)
same,"PAIN Intensity Difference, Mean score (SD)","[3]; 1st dose at wound closure, 24 hours post first dose",−1.9 (1.5)
same,"PAIN Intensity Difference, Mean score (SD)","[3]; 1st dose at wound closure, 30 hours post first dose",−1.6 (1.4)
same,"PAIN Intensity Difference, Mean score (SD)","[3]; 1st dose at wound closure, 36 hours post first dose",−1.3 (1.4)
same,"PAIN Intensity Difference, Mean score (SD)","[3]; 1st dose at wound closure, 42 hours post first dose",−1.7 (1.8)
same,"PAIN Intensity Difference, Mean score (SD)","[3]; 1st dose at wound closure, 48 hours post first dose",−1.4 (1.5)
same,"PAIN Intensity Difference, Mean score (SD)","[3]; 1st dose on demand, 0.5 hours post first dose",−0.1 (2.4)
same,"PAIN Intensity Difference, Mean score (SD)","[3]; 1st dose on demand, 1 hour post first dose",−0.5 (2.8)
same,"PAIN Intensity Difference, Mean score (SD)","[3]; 1st dose on demand, 2 hours post first dose",0.2 (2.1)
same,"PAIN Intensity Difference, Mean score (SD)","[3]; 1st dose on demand, 3 hours post first dose",0.3 (2.3)
same,"PAIN Intensity Difference, Mean score (SD)","[3]; 1st dose on demand, 4 hours post first dose",0.3 (2.6)
same,"PAIN Intensity Difference, Mean score (SD)","[3]; 1st dose on demand, 6 hours post first dose",0.1 (2.8)
same,"PAIN Intensity Difference, Mean score (SD)","[3]; 1st dose on demand, 9 hours post first dose",0.8 (2.9)
same,"PAIN Intensity Difference, Mean score (SD)","[3]; 1st dose on demand, 12 hours post first dose",1.4 (2.0)
same,"PAIN Intensity Difference, Mean score (SD)","[3]; 1st dose on demand, 18 hours post first dose",1.2 (2.2)
same,"PAIN Intensity Difference, Mean score (SD)","[3]; 1st dose on demand, 24 hours post first dose",1.6 (1.8)
same,"PAIN Intensity Difference, Mean score (SD)","[3]; 1st dose on demand, 30 hours post first dose",1.9 (2.4)
same,"PAIN Intensity Difference, Mean score (SD)","[3]; 1st dose on demand, 36 hours post first dose",1.9 (2.1)
same,"PAIN Intensity Difference, Mean score (SD)","[3]; 1st dose on demand, 42 hours post first dose",2.1 (2.1)
same,"PAIN Intensity Difference, Mean score (SD)","[3]; 1st dose on demand, 48 hours post first dose",2.4 (2.3)
same,"Time to first demand of rescue medication after the first dose of Tramadol, Mean",[3]; Tramadol at wound Closure group,2.5 (+/−3) hours and 2.52 hours
same,"Time to first demand of rescue medication after the first dose of Tramadol, Mean",[3]; Tramadol on demand group,2.11 h
same,"Time to first demand of rescue medication after the first dose of Tramadol, Mean","[3]; Tramadol on demand group, listed as tramadol",2.1 (+/−5.4) hours
same,total amount of morphine used,[3]; both groups,approximately 15 mg
same,rescue morphine used,"[3]; first 24 hours, both groups",about 11 mg
same,rescue morphine used,"[3]; the next day, both groups",4 mg
same,carcinogenic potential,mice and rats,no evidence of carcinogenic potential
same,doses with behavioral/clinical signs and convulsions,rats and dogs,≥ 25 mg/kg/day
same,"Bioavailability, AUC6",clinical; 50 mg,85.2%
same,"Bioavailability, AUCt",clinical; 50 mg,102.0%
same,"Bioavailability, AUC∞",clinical; 50 mg,103.1%
same,"Bioavailability, Cmax",clinical; 50 mg,64.3%
same,"Bioavailability, T1/2",clinical; 50 mg,109.6%
same,bioavailability,clinical; 50 mg,91.2%
same,"Bioavailability, AUC6",clinical; 100 mg,70.3%
same,"Bioavailability, AUCt",clinical; 100 mg,74.8%
same,"Bioavailability, AUC∞",clinical; 100 mg,74.6%
same,"Bioavailability, Cmax",clinical; 100 mg,54.9%
same,"Bioavailability, T1/2",clinical; 100 mg,88.0%
same,bioavailability,clinical; 100 mg,114%
same,dose proportionality,clinical; iv,substantially dose proportional
same,AUC,"clinical; iv, 50 mg",1960 ± 450 ng·h/mL
same,AUC(0-inf),"clinical; iv, 50 mg",4040 ± 1060 ng·h/mL
same,AUC(0-t),"clinical; iv, 50 mg",4010 ± 1040 ng·h/mL
same,half-life,"clinical; iv, 50 mg",6.61 ± 0.4 h
same,Cmax,"clinical; iv, 50 mg",~541 ng/mL
same,Tmax,"clinical; iv, 50 mg",~0.375 h
same,AUC,"clinical; iv, 100 mg",4730 ± 1240 ng·h/mL
same,AUC(0-inf),"clinical; iv, 100 mg",11400 ± 4540 ng·h/mL
same,AUC(0-t),"clinical; iv, 100 mg",11200 ± 4270 ng·h/mL
same,half-life,"clinical; iv, 100 mg",7.89 ± 1.54 h
same,Cmax,"clinical; iv, 100 mg",~1250 ng/mL
same,Tmax,"clinical; iv, 100 mg",~0.406 h
same,"Dose Proportionality Ratio, T1/2",clinical; po,0.945
same,AUC,"clinical; po, 50 mg",1730 ± 625 ng·h/mL
same,AUC(0-inf),"clinical; po, 50 mg",4450 ± 2110 ng·h/mL
same,AUC(0-t),"clinical; po, 50 mg",4360 ± 2030 ng·h/mL
same,half-life,"clinical; po, 50 mg",7.39 ± 1.72 h
same,Cmax,"clinical; po, 50 mg",355 ± 121 ng/mL
same,Tmax,"clinical; po, 50 mg",1.88 ± 0.78 h
same,AUC,"clinical; po, 100 mg",3360 ± 1010 ng·h/mL
same,AUC(0-inf),"clinical; po, 100 mg",8850 ± 4570 ng·h/mL
same,AUC(0-t),"clinical; po, 100 mg",8660 ± 4260 ng·h/mL
same,half-life,"clinical; po, 100 mg",7.05 ± 1.97 h
same,Cmax,"clinical; po, 100 mg",703 ± 210 ng/mL
same,Tmax,"clinical; po, 100 mg",2.32 ± 1.35 h
same,genotoxic potential,[4],no evidence of genotoxic potential
same,patients reporting adverse events,[5],25%
same,NOAEL,"in vivo; both, 6.5 mg/kg",26 mg/kg/day
same,AUC(0-t),in vivo; female,1520 ng·h/mL
same,Cmax,in vivo; female,1530 ng/mL
same,AUC(0-t),in vivo; male,1210 ng·h/mL
same,Cmax,in vivo; male,1280 ng/mL

# Reference: US10406122B2 (priority 2011, dated 2019)
